Results taken from patent US6432953B1, “Polymorphic form of a tachykinin receptor antagonist” (Merck & Co., Inc., priority 1997, dated 2002).
Converted amounts (≈) assume the structure as drawn.

Legend:
Hygroscopicity = type: physicochemical
[1] = Vapor pressure by Knudsen effusion techniques; type: physicochemical; details: at elevated temperatures, Form I compared with Form II
Description: The vapor pressures of Form I and Form II at elevated temperatures were similar when examined with Knudsen effusion techniques.

cisplatin-induced emesis = assay: Ferret model of cisplatin-induced emesis; type: in vivo; details: model of Tattersall et al.
Thermal stability = type: physicochemical
[2] = Solubility in methanol/water; type: physicochemical; details: for solubility: 2/1 (v/v) methanol/water, 0 °C, organic solvent or mixture, thermodynamic from solid
Procedure: The solubility of Form I in 2/1 (v/v) methanol/water at 0° C. was determined to be 0.9±0.1 mg/ml. The solubility of Form II in 2/1 (v/v) methanol/water at 0C was determined to be 1.3±0.2 mg/ml.

Compound: CC(OC1OCCN(Cc2n[nH]c(=O)[nH]2)[C@H]1c1ccc(F)cc1)c1cc(C(F)(F)F)cc(C(F)(F)F)c1 (stereo partly drawn) [Form I]
- hygroscopicity (Hygroscopicity): non-hygroscopic
- vapor pressures [1]: similar
- retching and vomiting induced by cisplatin (cisplatin-induced emesis): attenuate the retching and vomiting induced by cisplatin
- thermal stability (Thermal stability; as a neat solid): high degree of thermal stability
- thermal stability (Thermal stability; in hydroalcoholic solution): high degree of thermal stability
- ratio of the solubilities [2]: 1.4
- solubility ([2]; 2/1 (v/v) methanol/water at 0° C.): 900 ± 100 µg/mL (≈ 1680 µM)
- more stable than Form II by ([2]; thermodynamic stability difference between polymorphs, from solubility ratio): 0.2 kcal/mol

Compound: CC(OC1OCCN(Cc2n[nH]c(=O)[nH]2)[C@H]1c1ccc(F)cc1)c1cc(C(F)(F)F)cc(C(F)(F)F)c1 (stereo partly drawn) [Form II]
- solubility ([2]; 2/1 (v/v) methanol/water at 0C): 1300 ± 200 µg/mL (≈ 2430 µM)
